From patent US11396517B1, “Exo-aza spiro inhibitors of menin-MLL interaction” (Janssen Pharmaceutica NV, priority 2017, dated 2022)
Where two headings read alike, the source gives them in different places.

Assays:
[1] = molecular target: T1, menin (Homo sapiens, UniProt O00255, T541A); assay: Menin/MLL homogenous time-resolved fluorescence (HTRF) assay; assay type: binding; details: location 2; read-out: (2) location 2 Menin HTRF assay (IC50 (nM))
T1 construct: Menin (a.a. 1-610-6×his tag)
T1 sequence (O00255 with tags, fused parts or gaps T541A): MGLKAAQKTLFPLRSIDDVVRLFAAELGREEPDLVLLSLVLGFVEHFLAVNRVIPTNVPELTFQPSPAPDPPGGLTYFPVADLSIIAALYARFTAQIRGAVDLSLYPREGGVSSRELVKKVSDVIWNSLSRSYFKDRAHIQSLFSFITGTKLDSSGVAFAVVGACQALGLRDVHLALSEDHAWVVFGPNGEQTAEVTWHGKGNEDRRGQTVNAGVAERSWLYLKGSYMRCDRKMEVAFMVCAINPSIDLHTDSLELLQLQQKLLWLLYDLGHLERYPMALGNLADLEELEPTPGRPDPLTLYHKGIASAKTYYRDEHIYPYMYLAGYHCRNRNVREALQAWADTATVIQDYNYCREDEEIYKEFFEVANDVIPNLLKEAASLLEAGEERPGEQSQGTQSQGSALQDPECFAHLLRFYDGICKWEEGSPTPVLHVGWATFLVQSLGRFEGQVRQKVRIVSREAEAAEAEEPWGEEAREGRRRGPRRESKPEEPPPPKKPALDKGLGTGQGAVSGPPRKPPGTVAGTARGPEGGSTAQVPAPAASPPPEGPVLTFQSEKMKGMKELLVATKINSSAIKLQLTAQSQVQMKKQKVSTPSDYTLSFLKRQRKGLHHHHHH
In short: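 Terbium-labeled menin (aa 1-610, His-tagged; […]) preincubated 5 min with compound, then 75 nM FITC-MBM1 peptide for 15 min, ambient, Tris pH 7.5, 0.5% DMSO. HTRF 520/490 ratio; 11-point 3-fold titration; IC50 from % inhibition fit.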

[2] = test system: MV-4-11; assay: Proliferation assay B (spheroid assay) MV-4-11; assay type: cell-based, human; details: MV-4-11 cells, confluence at day 8, absolute IC50, read-out: (3b) Spheroid assay MV-4--11 (IC50(μM)) Assay B
Procedure: 3b) Proliferation Assay B
The anti-proliferative effect of menin/MLL protein/protein interaction inhibitor test compounds was assessed in human leukemia cell lines. The cell lines MV-4-11 and MOLM14 harbor MILL translocations and express the MILL fusion proteins MLL-AF4 and MLL-AF9, respectively, as well as the wildtype protein from the second allele. […] K562 was used as a control cell line containing two MLL wildtype alleles in order to exclude compounds that display general cytotoxic effects.
MV-4-11 and MOLM14 were cultured in RPMI-1640 (Sigma Aldrich) supplemented with 10% fetal bovine serum (HyClone), 2 mM L-glutamine (Sigma Aldrich) and 50 μg/ml gentamycin (Gibco). K562 were propagated in RPMI-1640 (Sigma Aldrich) supplemented with 20% fetal bovine serum (HyClone), 2 mM L-glutamine (Sigma Aldrich) and 50 μg/ml gentamycin (Gibco).
In order to assess the anti-proliferative effects, 1,500 MV-4-11, 300 MOLM14 cells or 750 K562 cells were seeded in 200 μl media per well in 96-well round bottom, ultra-low attachment plates (Costar, catalogue number 7007). Cell seeding numbers were chosen based on growth curves to ensure linear growth throughout the experiment. Test compounds were added at different concentrations and the DMSO content was normalized to 0.3%. Cells were incubated for 8 d at 37° C. and 5% CO2. Spheroid like growth was measured in real-time by live-cell imaging (IncuCyteZOOM, Essenbio, 4× objective) acquiring images at day 8. Confluence (%) as a measure of spheroid size was determined using an integrated analysis tool.
In order to determine the effect of the test compounds over time, the confluence in each well as a measure of spheroid size, was calculated. Confluence […] at the beginning of the experiment (t=0) was used as baseline for the calculation.
Absolute IC50 values were calculated as percent change in confluence as follows:
LC=Low Control: cells treated with 1 μM of the cytotoxic agent staurosporin
HC=High Control: Mean confluence (%) (DMSO treated cells) % Effect=100−(100*(Sample−LC)/(HC−LC))
To determine the IC50 a curve is fitted to the plot of % Effect vs Log 10 compound concentration using a sigmoidal fit with a variable slope and fixing the maximum to 100% and the minimum to 0%.

[3] = test system: MOLM14; assay: Proliferation assay B (spheroid assay) MOLM14; assay type: cell-based, human; details: MOLM14 cells, confluence at day 8, absolute IC50, read-out: (3b) Spheroid assay MOLM14 (IC50(μM)) Assay B
In short: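 Leukemia cells grown as spheroids in ultra-low-attachment round-bottom wells with compound at 0.3% DMSO for 8 d at 37 °C. Confluence imaged at day 8 as spheroid size, normalized between DMSO and 1 μM staurosporine controls; absolute IC50 from sigmoidal fit with bounds fixed at 0 and 100%.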

Row | SMILES | IC50 [1] [nM] | IC50 ([2]; Homo sapiens, MV4-11, 192 h) [µM] | IC50 ([3]; Homo sapiens, MOLM-14, 192 h) [µM] | IC50 [2] [µM] | IC50 [3] [µM]
1 | Cc1nc(N2CCC3(CC(NCc4ccccc4)C3)C2)c2cc(CC(F)(F)F)sc2n1 (single isomer, unassigned) [Compound 262] | 15.1 | 0.69 | 0.81 |  | 
2 | COc1nc(N2CCC3(CC(Nc4ccccc4)C3)C2)c2cc(CC(F)(F)F)sc2n1 (single isomer, unassigned) [Compound 267] | 98.2 | > 3.75 | > 3.75 |  | 
3 | O=c1[nH]c2cc(N[C@@H]3CCC4(C3)CN(c3ncnc5sc(CC(F)(F)F)cc35)C4)ccc2o1 (single isomer, unassigned) [Compound 286] | 23.7 | 2.48 | > 3.75 |  | 
4 | O=c1[nH]c2cc(N[C@H]3CCC4(C3)CN(c3ncnc5sc(CC(F)(F)F)cc35)C4)ccc2o1 (single isomer, unassigned) [Compound 287] | 22.8 | 3.37 | > 3.75 |  | 
5 | O=C(c1ccc(NC2CC3(CCN(c4ncnc5sc(CC(F)(F)F)cc45)C3)C2)cc1)N1CCOCC1 (single isomer, unassigned) [Compound 334] | 256 |  |  | > 3.75 | > 3.75
6 | O=C(c1ccc(NC2CC3(CCN(c4ncnc5sc(CC(F)(F)F)cc45)C3)C2)cc1)N1CCOCC1 (single isomer, unassigned) [Compound 335] | 5.2 |  |  | 0.46 | 1.55
7 | CS(=O)(=O)NC(=O)c1ccc(NC2CC3(CCN(c4ncnc5sc(CC(F)(F)F)cc45)C3)C2)cc1 (single isomer, unassigned) [Compound 361] | 61.7 |  |  | > 3.75 | > 3.75
8 | CS(=O)(=O)NC(=O)c1ccc(NC2CC3(CCN(c4ncnc5sc(CC(F)(F)F)cc45)C3)C2)cc1 (single isomer, unassigned) [Compound 362] | 836 | > 3.75 | > 3.75 |  | 
9 | COC[C@@H]1CN(C(=O)c2ccc(NC3CC4(CCN(c5ncnc6sc(CC(F)(F)F)cc56)C4)C3)cc2)CCO1 (single isomer, unassigned) [Compound 410] | 68.7 | > 3.75 | > 3.75 |  | 
10 | O=C(c1ccc(NC2CC3(CCN(c4ncnc5sc(CC(F)(F)F)cc45)C3)C2)cc1)N1CC2(COC2)C1 (single isomer, unassigned) [Compound 413] | 2290 | > 3.75 | > 3.75 |  | 
11 | Cn1c(=O)[nH]c2ccc(CN[C@@H]3CCC4(C3)CN(c3ncnc5sc(CC(F)(F)F)cc35)C4)cc21 (stereo in doubt) [Compound 110] | 5.5 | 0.62 | 1.91 |  | 
12 | Cn1c(=O)[nH]c2ccc(CN[C@H]3CCC4(C3)CN(c3ncnc5sc(CC(F)(F)F)cc35)C4)cc21 (stereo in doubt) [Compound 111] | 65 | 0.62 | 3.06 |  | 
13 | COc1nc(N2CC3(CC[C@H](NCc4cccc(-c5cc[nH]n5)c4)C3)C2)c2cc(CC(F)(F)F)sc2n1 (stereo in doubt) [Compound 116] | 30.6 | 2.06 | 2.32 |  | 
14 | CNc1nc(N2CC3(CC[C@@H](NCc4cccc(-c5cc[nH]n5)c4)C3)C2)c2cc(CC(F)(F)F)sc2n1 (stereo in doubt) [Compound 121] | 32.7 | 0.98 | 1.6 |  | 
15 | CNc1nc(N2CC3(CC[C@H](NCc4cccc(-c5cc[nH]n5)c4)C3)C2)c2cc(CC(F)(F)F)sc2n1 (stereo in doubt) [Compound 122] | 49.3 | 0.44 | 1.21 |  | 
